Results reported in patent US7759366B2 (Sanofi-Aventis, priority 2006, dated 2010).
pIC50, pKi: −log10 of the molar value. Where two headings read alike, the source gives them in different places.

How the values were obtained:
hCB1R [1] = biological target: T1, hCB1R (Homo sapiens, UniProt P21554); test: In vitro functional assay (FLIPR, intracellular Ca2+) with recombinant HEK293 cells, CB1; assay type: cell-based; design: expressed in transfected cells; host or cells: HEK293
Source text: In Vitro Functional Assays with Recombinant Cells:

hCB2R = hCB2R (Homo sapiens, UniProt P34972); test: In vitro functional assay (FLIPR, intracellular Ca2+) with recombinant HEK293 cells, CB2;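 note: intracellular Ca2+ was tracked with the fluorescent dye Fluo-4 loaded into the cells before test substance addition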
Description: Function-testing assays were performed by means of the FLIPR technique (“Fluorometric Imaging Plate Reader”, Molecular Devices Corp.).
To this end, ligand-induced changes in the intracellular concentration of Ca^2+ in recombinant HEK293 cells, which expressed both a cannabinoid receptor (CB1 or CB2) and G-protein Galpha16, were determined. For the studies, cells were sown into 96-well microtiter plates (60 000 cells/well) and left to grow overnight. The medium was removed and the cells were incubated in buffer which contained the fluorescent dye Fluo-4. After this loading with dye, the cells were washed, test substance was added dissolved in buffer, the mixture was incubated for 20 minutes, a known cannabinoid receptor agonist as a reference agonist was added in buffer and, finally, the changes in the intracellular Ca^2+ concentration were measured in the FLIPR unit.

hCB1R [2] = biological target: T1, hCB1R; test: Binding to the CB1 receptor ([3H]-SR141716A displacement)
Procedure, shortened: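 [3H]-SR141716A displacement at hCB1R; test compounds at final 10 μM to 0.005 μM in assay buffer with 1% DMSO, duplicate determinations. Low control 1 μM AM 251, high control binding without compound; IC50 from curve fit, converted to Ki via Cheng-Prusoff using Kd.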

[3] = read-out: hCB2R: FLIPR, IC50, recombinant HEK293 cells expressing CB2 and Galpha16, 20 min preincubation, then reference agonist, Ca2+ change
[4] = recombinant HEK293 cells expressing CB1 and Galpha16, 20 min preincubation, then reference agonist, Ca2+ change, read-out: hCB1R: FLIPR, IC50
[5] = CHO-K1/cannabinoid CB1 protein 2 μg/well, [3H]-SR141716A 0.5 nM, Ki from IC50 by Cheng-Prusoff, average of double determination, read-out: hCB1R, binding Ki

T1 sequence (P21554 whole entry): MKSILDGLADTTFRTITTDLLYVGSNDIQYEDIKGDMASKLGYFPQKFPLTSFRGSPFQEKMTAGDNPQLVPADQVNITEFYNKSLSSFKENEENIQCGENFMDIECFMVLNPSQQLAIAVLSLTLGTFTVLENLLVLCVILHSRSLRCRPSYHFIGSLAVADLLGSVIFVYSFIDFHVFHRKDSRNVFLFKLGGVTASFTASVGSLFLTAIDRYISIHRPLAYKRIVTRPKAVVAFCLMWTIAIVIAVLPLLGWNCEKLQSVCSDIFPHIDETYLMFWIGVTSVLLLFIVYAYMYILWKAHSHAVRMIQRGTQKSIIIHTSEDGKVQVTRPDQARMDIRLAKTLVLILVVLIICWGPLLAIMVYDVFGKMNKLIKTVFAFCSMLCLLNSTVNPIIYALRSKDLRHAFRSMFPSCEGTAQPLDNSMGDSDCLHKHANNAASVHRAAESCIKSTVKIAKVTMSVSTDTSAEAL
hCB2R, sequence (P34972 whole entry): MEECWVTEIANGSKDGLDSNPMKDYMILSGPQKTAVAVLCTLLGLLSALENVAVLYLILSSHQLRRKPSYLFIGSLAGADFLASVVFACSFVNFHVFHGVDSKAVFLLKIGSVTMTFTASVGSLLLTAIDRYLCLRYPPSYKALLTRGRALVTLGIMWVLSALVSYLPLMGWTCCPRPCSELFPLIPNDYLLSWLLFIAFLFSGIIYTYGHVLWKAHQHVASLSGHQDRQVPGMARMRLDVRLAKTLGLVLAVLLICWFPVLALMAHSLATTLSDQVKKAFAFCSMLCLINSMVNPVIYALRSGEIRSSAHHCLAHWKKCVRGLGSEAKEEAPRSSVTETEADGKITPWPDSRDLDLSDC

SMILES | pIC50 (hCB1R [1]) | pIC50 (hCB2R; [3]) | further results
CC1(C)C(=O)N(c2ccc(C#N)c(C(F)(F)F)c2)C(=O)N1Cc1ccccc1Nc1ccc(F)cc1 [Example 2, 4-{3-[2-(4-fluorophenylamino)benzyl]-4,4-dimethyl-2,5-dioxoimidazolidin-1-yl}-2-trifluoromethylbenzonitrile] | 7.96 | < 5.00 | –
CC1(C)C(=O)N(c2ccc(C#N)c(C(F)(F)F)c2)C(=O)N1Cc1ccc(Nc2ccccc2)cc1 [Example 30, 4-[4,4-Dimethyl-2,5-dioxo-3-(4-phenylaminobenzyl)imidazolidin-1-yl]-2-trifluoromethylbenzonitrile] | – | – | pIC50 (hCB1R [1]; [4]): 6.68; pIC50 (hCB2R): < 5.00
CC1(C)C(=O)N(c2ccc(C#N)c(C(F)(F)F)c2)C(=O)N1Cc1c(Cl)cc(Cl)cc1Nc1ccc(F)cc1F [Example 36, 4-{3-[2,4-dichloro-6-(2,4-difluorophenylamino)benzyl]-4,4-dimethyl-2,5-dioxoimidazolidin-1-yl}-2-trifluoromethylbenzonitrile] | 7.96 | < 5.00 | –
CC1(C)C(=O)N(c2ccc(C#N)c(C(F)(F)F)c2)C(=O)N1Cc1ccc(C(F)(F)F)cc1Nc1ccc(F)cc1 [Example 55, 4-{3-[2-(4-Fluorophenylamino)-4-trifluoromethylbenzyl]-4,4-dimethyl-2,5-dioxoimidazolidin-1-yl}-2-trifluoromethylbenzonitrile] | – | – | pKi (hCB1R [2]): 8.10; pIC50 (hCB1R [1]; [4]): 8.00
CC1(C)C(=O)N(c2ccc(C#N)c(C(F)(F)F)c2)C(=O)N1Cc1ccc(C(F)(F)F)cc1Nc1ccc(Cl)cc1 [Example 57, 4-{3-[2-(4-chlorophenylamino)-4-trifluoromethylbenzyl]-4,4-dimethyl-2,5-dioxoimidazolidin-1-yl}-2-trifluoromethylbenzonitrile] | 7.44 | < 5.00 | –
CC1(C)C(=O)N(c2ccc(C#N)c(C(F)(F)F)c2)C(=O)N1Cc1ccccc1Nc1ccc(S(N)(=O)=O)cc1 [Example 68, 5,5-4-{2-[3-(4-Cyano-3-trifluoromethylphenyl)-5,5-dimethyl-2,4-dioxoimidazolidin-1-ylmethyl]phenylamino}benzene sulfonamide] | – | – | pKi (hCB1R [2]): 7.80; pIC50 (hCB1R [1]; [4]): 7.36
CC1(C)C(=O)N(c2ccc(C#N)c(C(F)(F)F)c2)C(=O)N1Cc1ccccc1Nc1ccc(C#N)cc1F [Example 73, 4-{3-[2-(2-fluoro-4-cyanophenylamino)benzyl]-4,4-dimethyl-2,5-dioxoimidazolidin-1-yl}-2-trifluoromethylbenzonitrile] | 8.15 | < 5.00 | –
COc1ccc(Nc2ccccc2CN2C(=O)N(c3ccc(C#N)c(C(F)(F)F)c3)C(=O)C2(C)C)c(F)c1 [Example 74, 4-{3-[2-(2-fluoro-4-methoxyphenylamino)benzyl]-4,4-dimethyl-2,5-dioxoimidazolidin-1-yl}-2-trifluoromethylbenzonitrile] | 8.40 | < 5.00 | –
COc1ccc(Nc2ccccc2CN2C(=O)N(c3ccc(C#N)c(C(F)(F)F)c3)C(=O)C2(C)C)cc1OC [Example 75, 4-{3-[2-(3,4-dimethoxyphenylamino)benzyl]-4,4-dimethyl-2,5-dioxoimidazolidin-1-yl}-2-trifluoromethylbenzonitrile] | 7.31 | < 5.00 | –
CC1(C)C(=O)N(c2ccc(C#N)c(C(F)(F)F)c2)C(=O)N1Cc1ccccc1Nc1ccc(CC#N)cc1 [Example 78, 4-{3-[2-(4-cyanomethylphenylamino)benzyl]-4,4-dimethyl-2,5-dioxoimidazolidin-1-yl}-2-trifluoromethylbenzonitrile] | 8.40 | < 5.00 | –
CC1(C)C(=O)N(c2ccc(C#N)c(C(F)(F)F)c2)C(=O)N1Cc1ccccc1Nc1ccc(S(N)(=O)=O)cc1F [Example 81, 4-{2-[3-(4-cyano-3-trifluoromethylphenyl)-5,5-dimethyl-2,4-dioxoimidazolidin-1-ylmethyl]phenylamino}-3-fluorobenzenesulfonamide] | – | – | pIC50 (hCB1R [1]; [4]): 6.84; pIC50 (hCB2R): < 5.00
COC(=O)Cc1ccc(Nc2ccccc2CN2C(=O)N(c3ccc(C#N)c(C(F)(F)F)c3)C(=O)C2(C)C)cc1 [Example 82, methyl (4-{2-[3-(4-cyano-3-trifluoromethylphenyl)-5,5-dimethyl-2,4-dioxoimidazolidin-1-ylmethyl]phenylamino}phenyl)acetate] | 7.28 | < 5.00 | –
COc1ccc(Nc2ccccc2CN2C(=O)N(c3ccc(C#N)c(C(F)(F)F)c3)C(=O)C2(C)C)cn1 [Example 83, 4-{3-[2-(6-methoxypyridin-3-ylamino)benzyl]-4,4-dimethyl-2,5-dioxoimidazolidin-1-yl}-2-trifluoromethylbenzonitrile] | 8.05 | < 5.00 | –
CC1(C)C(=O)N(c2ccc(C#N)c(C(F)(F)F)c2)C(=O)N1Cc1ccccc1Nc1ccc(OC(F)(F)F)cc1F [Example 85, 4-{3-[2-(2-fluoro-4-trifluoromethoxyphenylamino)benzyl]-4,4-dimethyl-2,5-dioxoimidazolidin-1-yl}-2-trifluoromethylbenzonitrile] | 8.15 | < 5.00 | –
COC(=O)c1ccc(Nc2ccccc2CN2C(=O)N(c3ccc(C#N)c(C(F)(F)F)c3)C(=O)C2(C)C)cn1 [Example 90, methyl 5-{2-[3-(4-cyano-3-trifluoromethylphenyl)-5,5-dimethyl-2,4-dioxoimidazolidin-1-ylmethyl]phenylamino}pyridine-2-carboxylate] | 7.41 | < 5.00 | –
CC1(C)C(=O)N(c2ccc(C#N)c(C(F)(F)F)c2)C(=O)N1Cc1ccccc1Nc1ccc(C(F)(F)F)nc1 [Example 91, 4-{4,4-dimethyl-2,5-dioxo-3-[2-(6-trifluoromethylpyridin-3-ylamino)benzyl]-imidazolidin-1-yl}-2-trifluoromethylbenzonitrile] | 7.52 | < 5.00 | –
CC1(C)C(=O)N(c2ccc(C#N)c(C(F)(F)F)c2)C(=O)N1Cc1ccccc1Nc1ccc(CC(=O)O)cc1 [Example 92, (4-{2-[3-(4-cyano-3-trifluoromethylphenyl)-5,5-dimethyl-2,4-dioxoimidazolidin-1-ylmethyl]phenylamino}phenyl)acetic acid] | – | – | pIC50 (hCB1R [1]; [4]): 6.86; pIC50 (hCB2R): < 5.00
COc1ccc(Nc2ccccc2CN2C(=O)N(c3ccc(C#N)c(C(F)(F)F)c3)C(=O)C2(C)C)nn1 [Example 179, 4-{3-[2-(6-methoxypyridazin-3-ylamino)benzyl]-4,4-dimethyl-2,5-dioxoimidazolidin-1-yl}-2-trifluoromethylbenzonitrile] | – | – | pKi (hCB1R [2]): 7.80
COC(=O)c1ccc(Nc2cc(F)ccc2CN2C(=O)N(c3ccc(C#N)c(-c4ccccc4)c3)C(=O)C2(C)C)cc1 [Example 223] | – | – | pKi (hCB1R [2]; [5]): 8.40
COC(=O)c1ccc(Nc2cc(F)ccc2CN2C(=O)N(c3ccc(C#N)c(-c4ccc(Cl)cc4)c3)C(=O)C2(C)C)cc1 [Example 224, methyl 4-{2-[3-(4′-chloro-6-cyanobiphenyl-3-yl)-5,5-dimethyl-2,4-dioxoimidazolidin-1-ylmethyl]-5-fluorophenylamino}benzoate] | – | – | pKi (hCB1R [2]; [5]): 8.22
CC1(C)C(=O)N(c2ccc(C#N)c(-c3ccccc3)c2)C(=O)N1Cc1ccc(F)cc1Nc1ccc(C(=O)O)cc1 [Example 227, 4-{2-[3-(6-cyanobiphenyl-3-yl)-5,5-dimethyl-2,4-dioxoimidazolidin-1-ylmethyl]-5-fluorophenylamino}benzoic acid] | – | – | pKi (hCB1R [2]; [5]): 7.44; pIC50 (hCB1R [1]; [4]): 7.80
